The values below come from BindingDB's records for patent US10023539 (Bayer Pharma Aktiengesellschaft, 2018).

The target in the experiment is N-lysine methyltransferase SMYD2 (Homo sapiens, UniProt Q9NRG4). As to the kind of experiment: Scintillation Proximity Assay (SPA) for Detection of SMYD2 Enzymatic Inhibition. Particulars: pH 9. Here is the method:
To this end, 100-fold concentrated compound solutions (in DMSO) were previously prepared by serial dilution (1:3.4) of 2 mM stocks in a clear low volume 384-well source microtiter plate (Greiner Bio-One), from which 50 nl of compound solutions were transferred into a white low volume test microtiter plate from the same supplier. […] The samples were then incubated for 15 min at 22° C. to allow pre-equilibration of the putative enzyme-inhibitor complexes before the start of the methylation reaction, which was initiated by the addition of 2.5 μl 2-fold concentrated solution (in assay buffer) of titrated S-Adenosyl-L-Methionine (3H-SAM, Perkin Elmer, final concentration: 60 nM) and p53 Peptide substrate (final concentration: 1.0 μM). The resulting mixture (5 μl final volume) was shortly centrifuged (2 min., 1500 rpm) and incubated at 22° C. during 30 min.

N-lysine methyltransferase SMYD2, sequence (Q9NRG4 whole entry): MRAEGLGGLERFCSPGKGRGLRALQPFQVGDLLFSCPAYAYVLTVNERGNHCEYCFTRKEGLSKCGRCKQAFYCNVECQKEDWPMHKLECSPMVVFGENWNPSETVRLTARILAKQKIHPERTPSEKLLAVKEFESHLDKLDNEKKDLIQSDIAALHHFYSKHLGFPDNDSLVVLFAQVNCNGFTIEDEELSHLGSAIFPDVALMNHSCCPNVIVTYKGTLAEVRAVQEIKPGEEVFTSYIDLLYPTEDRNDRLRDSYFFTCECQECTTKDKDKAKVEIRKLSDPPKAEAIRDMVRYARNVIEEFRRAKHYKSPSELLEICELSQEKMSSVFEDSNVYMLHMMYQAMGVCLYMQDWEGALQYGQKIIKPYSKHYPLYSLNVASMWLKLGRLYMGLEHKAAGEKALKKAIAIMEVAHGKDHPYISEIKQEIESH

The compound `CCN(C(=O)[C@@H](C)NC)C1CN(/C(=N\C#N)Nc2cccc(OC(F)F)c2)N=C1c1ccc(Cl)c(C)c1` (stereo partly specified) [US10023539, Example 37] yielded a half-inhibitory concentration (IC50) of 231 nM.
